Results taken from US20080064667A1, “OXAZOLE DERIVATIVES OF TETRACYCLINES” (Wyeth, priority 2003, published 2008).
≈ marks a conversion by molar mass, not a printed value.

How the values were obtained:
Assay in all cases: MIC, broth microdilution (NCCLS)
Format in all cases: cell-based
[1] = test system: E. coli GC1073 (tet(B)); settings: Escherichia coli
Description: (§1) Methods for in Vitro Antibacterial Evaluation
(§2) The Minimum Inhibitory Concentration (MIC)
(§3) Antimicrobial susceptibility testing. The in vitro activities of the antibiotics are determined by the broth microdilution method as recommended by the National Committee for Clinical Laboratory Standards (NCCLS) (1). Mueller-Hinton II broth (MHBII)(BBL Cockeysville, Md.) is the medium employed in the testing procedures. Microtiter plates containing serial dilutions of each antimicrobial agent are inoculated with each organism to yield the appropriate density (10^5 CFU/ml) in a 100 μl final volume. The plates are incubated for 18-22 hours at 35° C. in ambient air.
(§4) 1. NCCLS. 2000. Methods for Dilution Antimicrobial Susceptibility Tests for Bacteria That Grow Aerobically; Approved Standards: M7-A5, vol. 20. National Committe for Clinical Laboratory Standards, Wayne, Pa.

[2] = test system: S. pyogenes* GC4563 (Clinical); settings: Streptococcus pyogenes, Mueller-Hinton II broth, 18-22 hours at 35° C.
Description: as §1, §2, §3, §4

[3] = test system: S. pneumoniae* GC1894 (Clinical); settings: Streptococcus pneumoniae, Mueller-Hinton II broth, 18-22 hours at 35° C.
Description: as §1, §2, §3, §4

[4] = test system: S. aureus GC4536 (Smith MP -In Vivo); settings: Staphylococcus aureus, Mueller-Hinton II broth, 18-22 hours at 35° C.
Description: as §1, §2, §3, §4

[5] = test system: S. pneumoniae* GC4465 (Clinical); settings: Streptococcus pneumoniae, Mueller-Hinton II broth, 18-22 hours at 35° C.
Description: as §1, §2, §3, §4

[6] = test system: S. aureus GC2216 (ATCC Control); settings: Staphylococcus aureus, Mueller-Hinton II broth, 18-22 hours at 35° C.
Description: as §1, §2, §3, §4

[7] = test system: C. albicans GC3066 ATCC (Control); settings: Candida albicans, Mueller-Hinton II broth, 18-22 hours at 35° C.
Description: as §1, §2, §3, §4

[8] = test system: S. aureus GC1079 (tet(K)); settings: Staphylococcus aureus, Mueller-Hinton II broth, 18-22 hours at 35° C.
Description: as §1, §2, §3, §4

[9] = test system: E. coli GC2270 (tet(M)); settings: Escherichia coli
Description: as §1, §2, §3, §4

[10] = test system: M. catarrhalis* GC6907 (Clinical); settings: Moraxella catarrhalis, Mueller-Hinton II broth, 18-22 hours at 35° C.
Description: as §1, §2, §3, §4

[11] = test system: E. coli GC4559 (parent GC4560); settings: Escherichia coli, Mueller-Hinton II broth, 18-22 hours at 35° C.
Description: as §1, §2, §3, §4

[12] = test system: E. faecalis GC4555 (ATCC Control); settings: Enterococcus faecalis, Mueller-Hinton II broth, 18-22 hours at 35° C.
Description: as §1, §2, §3, §4

[13] = test system: E. faecalis GC2242 (Van-resistant); settings: Enterococcus faecalis, Mueller-Hinton II broth, 18-22 hours at 35° C.
Description: as §1, §2, §3, §4

[14] = test system: E. coli GC4560 (IMP mutant); settings: Escherichia coli
Description: as §1, §2, §3, §4

[15] = test system: S. aureus GC6466 (tet(M)); settings: Staphylococcus aureus, Mueller-Hinton II broth, 18-22 hours at 35° C.
Description: as §1, §2, §3, §4

[16] = test system: E. coli GC2203 (ATCC Control); settings: Escherichia coli, Mueller-Hinton II broth, 18-22 hours at 35° C.
Description: as §1, §2, §3, §4

[17] = test system: H. influenzae<> GC6896 (ATCC Control); settings: Haemophilus influenzae, Mueller-Hinton II broth, 18-22 hours at 35° C.
Description: as §1, §2, §3, §4

[18] = test system: S. aureus GC1131 (Clinical); settings: Staphylococcus aureus, Mueller-Hinton II broth, 18-22 hours at 35° C.
Description: as §1, §2, §3, §4

Structure (SMILES)	MIC [1] [µg/mL]	MIC [2] [µg/mL]	MIC [3] [µg/mL]	MIC [4] [µg/mL]	MIC [5] [µg/mL]	MIC [6] [µg/mL]	MIC [7] [µg/mL]	MIC [8] [µg/mL]	MIC [9] [µg/mL]	MIC [10] [µg/mL]	MIC [11] [µg/mL]	MIC [12] [µg/mL]	MIC [13] [µg/mL]	MIC [14] [µg/mL]	MIC [15] [µg/mL]	MIC [16] [µg/mL]	MIC [17] [µg/mL]	MIC [18] [µg/mL]
CN(C)c1cc2nc(-c3cc4ccccc4n3C)oc2c2c1C[C@H]1C[C@H]3[C@H](N(C)C)C(O)=C(C(N)=O)C(=O)[C@@]3(O)C(O)=C1C2=O [Example 19, (6aR,7aS,8S,11aS)-5,8-bis(dimethylamino)-9,11a,12-trihydroxy-2-(1-methyl-1H-indol-2-yl)-11,13-dioxo-6,6a,7,7a,8,11,11a,13-octahydrotetraceno[2,1-d][1,3]oxazole-10-carboxamide]	> 64	8 (≈ 13.1 µM)	4 (≈ 6.54 µM)	8 (≈ 13.1 µM)	4 (≈ 6.54 µM)	4 (≈ 6.54 µM)	> 64	4 (≈ 6.54 µM)	> 64	16 (≈ 26.2 µM)	> 64	8 (≈ 13.1 µM)	4 (≈ 6.54 µM)	4 (≈ 6.54 µM)	4 (≈ 6.54 µM)	> 64	> 64	4 (≈ 6.54 µM)
CN(C)c1cc2nc(-c3cccnc3)oc2c2c1C[C@H]1C[C@H]3[C@H](N(C)C)C(O)=C(C(N)=O)C(=O)[C@@]3(O)C(O)=C1C2=O [Example 34, (6aR,7aS,8S,11aS)-5,8-bis(dimethylamino)-9,11a,12-trihydroxy-11,13-dioxo-2-pyridin-3-yl-6,6a,7,7a,8,11,11a,13-octahydrotetraceno[2,1-d][1,3]oxazole-10-carboxamide]	> 64	32 (≈ 57.2 µM)	64 (≈ 114 µM)	64 (≈ 114 µM)	32 (≈ 57.2 µM)	32 (≈ 57.2 µM)	> 64	32 (≈ 57.2 µM)	> 64	16 (≈ 28.6 µM)	> 64	32 (≈ 57.2 µM)	32 (≈ 57.2 µM)	32 (≈ 57.2 µM)	64 (≈ 114 µM)	> 64	> 64	32 (≈ 57.2 µM)
COc1ccc(-c2nc3cc(N(C)C)c4c(c3o2)C(=O)C2=C(O)[C@]3(O)C(=O)C(C(N)=O)=C(O)[C@@H](N(C)C)[C@@H]3C[C@@H]2C4)cc1F [Example 13, (6aR,7aS,8S,11aS)-5,8-bis(dimethylamino)-2-(3-fluoro-4-methoxyphenyl)-9,11a,12-trihydroxy-11,13-dioxo-6,6a,7,7a,8,11,11a,13-octahydrotetraceno[2,1-d][1,3]oxazole-10-carboxamide]	> 64	16 (≈ 26.4 µM)	16 (≈ 26.4 µM)	8 (≈ 13.2 µM)	32 (≈ 52.8 µM)	4 (≈ 6.59 µM)	> 64	4 (≈ 6.59 µM)	> 64	16 (≈ 26.4 µM)	> 64	8 (≈ 13.2 µM)	8 (≈ 13.2 µM)	4 (≈ 6.59 µM)	4 (≈ 6.59 µM)	> 64	> 64	4 (≈ 6.59 µM)
Cc1ccc(-c2nc3cc(N(C)C)c4c(c3o2)C(=O)C2=C(O)[C@]3(O)C(=O)C(C(N)=O)=C(O)[C@@H](N(C)C)[C@@H]3C[C@@H]2C4)cc1 [Example 5, (6aR,7aS,8S,11aS)-5,8-bis(dimethylamino)-9,11a,12-trihydroxy-2-(4-methylphenyl)-11,13-dioxo-6,6a,7,7a,8,11,11a,13-octahydrotetraceno[2,1-d][1,3]oxazole-10-carboxamide]	> 64	16 (≈ 27.9 µM)	8 (≈ 14 µM)	4 (≈ 6.99 µM)	16 (≈ 27.9 µM)	4 (≈ 6.99 µM)	> 64	4 (≈ 6.99 µM)	> 64	16 (≈ 27.9 µM)	> 64	4 (≈ 6.99 µM)	4 (≈ 6.99 µM)	4 (≈ 6.99 µM)	4 (≈ 6.99 µM)	> 64	> 64	4 (≈ 6.99 µM)
CN(C)c1cc2nc(/C=C/c3ccccc3F)oc2c2c1C[C@H]1C[C@H]3[C@H](N(C)C)C(O)=C(C(N)=O)C(=O)[C@@]3(O)C(O)=C1C2=O [Example 30, (6aR,7aS,8S,11aS)-5,8-bis(dimethylamino)-2-[(E)-2-(2-fluorophenyl)ethenyl]-9,11a,12-trihydroxy-11,13-dioxo-6,6a,7,7a,8,11,11a,13-octahydrotetraceno[2,1-d][1,3]oxazole-10-carboxamide]	> 64	16 (≈ 26.6 µM)	16 (≈ 26.6 µM)	8 (≈ 13.3 µM)	16 (≈ 26.6 µM)	4 (≈ 6.64 µM)	> 64	8 (≈ 13.3 µM)	> 64	32 (≈ 53.1 µM)	> 64	8 (≈ 13.3 µM)	4 (≈ 6.64 µM)	8 (≈ 13.3 µM)	8 (≈ 13.3 µM)	> 64	> 64	4 (≈ 6.64 µM)
CN(C)c1cc2nc(-c3ccco3)oc2c2c1C[C@H]1C[C@H]3[C@H](N(C)C)C(O)=C(C(N)=O)C(=O)[C@@]3(O)C(O)=C1C2=O [Example 20, (6aR,7aS,8S,1aS)-5,8-bis(dimethylamino)-2-(2-furyl)-9,11a,1 2-trihydroxy-11,13-dioxo-6,6a,7,7a,8,11,11a,13-octahydrotetraceno[2,1-d][1,3]oxazole-10-carboxamide]	> 64	32 (≈ 58.3 µM)	64 (≈ 117 µM)	64 (≈ 117 µM)	> 64	32 (≈ 58.3 µM)	> 64	32 (≈ 58.3 µM)	> 64	32 (≈ 58.3 µM)	> 64	64 (≈ 117 µM)	32 (≈ 58.3 µM)	32 (≈ 58.3 µM)	32 (≈ 58.3 µM)	> 64	> 64	32 (≈ 58.3 µM)
COc1cc(OC)c(-c2nc3cc(N(C)C)c4c(c3o2)C(=O)C2=C(O)[C@]3(O)C(=O)C(C(N)=O)=C(O)[C@@H](N(C)C)[C@@H]3C[C@@H]2C4)c(OC)c1 [Example 15, (6aR,7aS,8S,11aS)-5,8-bis(dimethylamino)-9,11a,12-trihydroxy-11,13-dioxo-2-(2,4,6-trimethoxyphenyl)-6,6a,7,7a,8,11,11a,13-octahydrotetraceno[2,1-d][1,3]oxazole-10-carboxamide]	> 64	> 64	> 64	64 (≈ 98.7 µM)	> 64	64 (≈ 98.7 µM)	> 64	64 (≈ 98.7 µM)	> 64	64 (≈ 98.7 µM)	> 64	64 (≈ 98.7 µM)	64 (≈ 98.7 µM)	32 (≈ 49.3 µM)	64 (≈ 98.7 µM)	> 64	> 64	64 (≈ 98.7 µM)
